Reference: EP2236511A2, “LIGANDS OF ALPHA-ADRENOCEPTORS AND OF DOPAMINE, HISTAMINE, IMIDAZOLINE AND SEROTONIN RECEPTORS AND THE USE THEREOF” (priority 2007, dated 2009)
pKi: −log10 of the molar value. Structures can show the parent of a compound that is named as a salt. Where two headings read alike, the source gives them in different places.

Experiments:
[1] = target: T1, recombinant human 5-HT1A (Homo sapiens, UniProt P08908); test: Radioligand binding to serotonin receptor 5-HT1A ([3H] 8-OH-DPAT, CHO membranes); conditions: for inhibition at 10 µM: read-out: 5-HT1A % inhibition
T1 construct: expressed in transfected cells; host or cells: CHO
T1 sequence (P08908 1-422): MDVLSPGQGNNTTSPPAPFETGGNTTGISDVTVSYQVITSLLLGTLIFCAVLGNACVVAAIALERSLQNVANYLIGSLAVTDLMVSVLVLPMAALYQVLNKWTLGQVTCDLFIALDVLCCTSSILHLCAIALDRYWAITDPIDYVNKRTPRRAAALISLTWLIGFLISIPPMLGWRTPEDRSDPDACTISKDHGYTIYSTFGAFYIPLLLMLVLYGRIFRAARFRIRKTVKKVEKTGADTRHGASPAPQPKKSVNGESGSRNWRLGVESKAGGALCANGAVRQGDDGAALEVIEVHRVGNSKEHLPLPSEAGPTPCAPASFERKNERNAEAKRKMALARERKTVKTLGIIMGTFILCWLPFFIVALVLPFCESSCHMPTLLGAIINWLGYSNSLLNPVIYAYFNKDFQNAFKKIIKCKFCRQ
Description: J Pharmacol Exp Ther. 306(1): 301-309, 2003]. […] Metergoline is used as positive control.

[2] = target: T2, human D2S receptor (Homo sapiens, UniProt P14416); test: Radioligand binding to dopamine receptor D2S ([3H] Spiperone, CHO membranes)
T2 construct: expressed in transfected cells; host or cells: CHO
Description: 7-C. […] For this purpose sDNA of human D2S receptor is expressed in CHO cells, as described in [Hayes G, Biden TJ, Selbie LA and Shine J, Structural subtypes of the dopamine D2 receptor are functionally distinct. […] Mol Endocrinol. […] Mol Endocrinol. […] Spiperone is used as positive control.

[3] = system: male mice of BALB/c line; test: Passive Avoidance of mice in the Shuttle Chamber, memory disturbed by MK-801; format: in vivo; conditions: MK-801 0.1 mg/kg, injected 30 minutes before training; fig. 4-6
Method: Example 15. […] The testing was carried out as in example 14. […] Concurrently, physiological solution of MK-801 in combination with active ingredient 1.9 (1) 1/2NDSA was injected intraintestinally to independent group of mice before training.

[4] = system: male mice of BALB/c line; test: Mice Behavior in the Elevated Plus Maze; format: in vivo; conditions: fig. 7-9; compared with Buspirone and Lorazepam
Description: Example 16. […] The length of each arm of the maze was 30cm, width is 5cm, and height of the walls was 15cm. Two opposite arms were closed from both sides and end faces by transparent walls, the other two arms were lit and opened. A mouse was placed in the center of the maze and for the next five minutes the number of entries into opened and closed arms and the time spent in each type of arms was registered. […] The animals usually avoided opened arms (the preference index is between 0.2 and 0.3). Compounds with tranquilizing action increased this index up to 0.5-0.6 or even more and reduced the number of defecations without changing the overall motion activity of the mice (the total number of their entries to the arms).

[5] = system: male mice of BALB/c line; test: Passive Avoidance of mice in the Shuttle Chamber, memory disturbed by Scopolamine; format: in vivo; conditions: Scopolamine 0.3 mg/kg, injected 30 minutes before training; figures 1-3
Method: Example 14. […] A shuttle chamber (Ugo Basile, Italy) consisted of two sections was used. […] The sections were connected through a hole which could be overlapped by a vertical door. The floor was made of transverse metal bars on which DC current impulses could be fed. Experiments were carried out in aged male mice of BALB/c line weighing 20-24 grams.
Each group consisted of at least 8 animals. Animal was placed in light section, and latent period of the first entry into dark chamber was registered. Then the vertical door was closed and the animal was punished by 0.6 mA DC current for 3 seconds. After that it was taken back to its homecage. In 22-24 hours the same animal was placed again in light section of the shuttle chamber and latent period of its first entry into dark section, the total time of its stay in light section, and the number of entries into dark section, were registered. Each monitoring lasted for 5 minutes.
Testing was carried out during the day time in isolated laboratory using white noise at level of about 70 decibel above human hearing threshold.
Scopolamine causes the disturbance of training (memory loss) that results in […].

[6] = system: mice; test: Mice Training in Morris Water Maze (Scopolamine); format: in vivo; conditions: unitary introduction of active ingredient; figures 10-13
Method: Example 17. Mice Training in Morris Water Maze. A round pool which was filled with water at 20-22°C was used. A round ceramic platform of 14cm height was placed in the pool. Animals's behavior was registered with automated computer videosystem in combination with software package of movement analysis Any-maze (Stoelting Co., US). Before testing mice suitable for training were selected. That was done by placing the platform 1cm above the water level and putting an animal on the platform for 20 seconds. Then the mouse was sunk into the water on the opposite side of the pool, allowed to find the platform and climbed it […] 60 seconds, where it was left for additional 20 seconds. After that the mouse was repeatedly immersed into water on the opposite side of the pool and allowed to look for platform. If it failed in finding the platform within 60 seconds the experimentator helped it to find the platform and climb it. If the mice could not find the platform itself in two consecutive attempts it was excluded from experiment. During the next two days the platform was placed 0.5 centimeter lower the water level. Every day the mice were given four attempts for finding the platform within 60 seconds. The time interval between the attempts was 20 seconds, during which the mice stayed on the platform. Every day before the first attempt mouse was placed on the platform for 20 seconds. The time needed for finding and climbing the platform was registered. The animals were sunk in water in 3 different places on the side of the pool opposite to platform. On each day of two-day testing 35-40 minutes before the beginning of training the mice were injected intraintestinally with physiological solution, Scopolamine or Scopolamine in combination with investigated compound. At least 8 animals were used in each group. On the third day the platform was removed and each animal was placed one time in the pool for a period of 60 seconds. The time each mouse spent in the area where the platform had been located during the previous days was registered. This time interval was regarded as a measure of effectiveness of training fulfilled during the previous two days. The testing was carried out during the day time in isolated laboratory using "white noise" at level of about 70 decibel above the human hearing threshold.

[7] = read-out: Dopamine receptors, % inhibition D2S

T2 sequence (P14416 1-414 isoform P14416-2): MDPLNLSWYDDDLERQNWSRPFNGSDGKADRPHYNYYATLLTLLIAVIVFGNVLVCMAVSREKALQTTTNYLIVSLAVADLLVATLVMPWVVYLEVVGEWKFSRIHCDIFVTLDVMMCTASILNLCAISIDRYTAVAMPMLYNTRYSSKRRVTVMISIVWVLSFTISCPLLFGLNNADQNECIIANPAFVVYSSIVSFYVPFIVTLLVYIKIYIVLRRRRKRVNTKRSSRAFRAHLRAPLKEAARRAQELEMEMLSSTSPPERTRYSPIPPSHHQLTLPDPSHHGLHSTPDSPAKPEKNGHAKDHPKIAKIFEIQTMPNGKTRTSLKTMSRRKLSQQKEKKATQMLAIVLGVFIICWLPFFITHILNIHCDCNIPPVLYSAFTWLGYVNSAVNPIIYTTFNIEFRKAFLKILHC

Cc1ccc2c(c1)[C@@H]1CN(C)CCC[C@@H]1N2CCc1ccc(C)nc1 (relative stereo) [1.6.1(2)·3HCl]
inhibition at 10 µM [1]: -9%
inhibition at 10 µM [2, 7]: 31%

Cc1ccc2c(c1)c1c(n2CCc2ccccc2)CCN(C)C1 [1.1.2(1-2)·HCl, 2,8-dimethyl-5-phenethyl-1,2,3,4-tetrahydro-1H-pyrido[4,3-b]indole hydrochloride]
inhibition at 10 µM [1]: 84%

CN1CCc2c(c3ccccc3n2Cc2ccccc2)C1 [1.9(1)·1/2NDSA, bis-(5-benzyl-2-methyl-2,3,4,5-tetrahydro-1H-pyrido[4,3-b]indole) naphthalene-1,5-disulfonate]
memory enhancement disturbed by MK-801 [3]: act as nootropic
Anxiolytic (tranquilizing) action [4]: exhibits anxiolytic (tranquilizing) action
enhancement of memory disturbed by Scopolamine [5]: nootropic action
nH ([2]; Receptor D2S): 0.879
inhibition at 10 µM [2, 7]: 51%

Cc1ccc2c(c1)[C@@H]1CN(C)CCC[C@@H]1N2CCc1cccnc1 (relative stereo) [1.6.1(1)·3HCl]
inhibition at 10 µM [2, 7]: 42%

Cc1ccc(CCn2c3c(c4cc(C)ccc42)CN(C)CC3)cc1 [1.1.2(1-3), 2,8-dimethyl-5-[2-(4-methylphenyl)-ethyl]-1,2,3,4-tetrahydro-1H-pyrido[4,3-b]indole]
5-HT1A % inhibition ([1]; 10 µM ligand): 68%

Cc1ccc2c(c1)c1c(n2CCc2ccc(C)nc2)CCN(C)C1 [1.1.2(4-2)·2HCl]
inhibition at 10 µM ([1]; 10 µM ligand): 9%
Dopamine receptors, % inhibition D2S ([2]; 10 µM ligand): 80%
pKi ([2]; Receptor D2S): 6.20
nH ([2]; Receptor D2S): 0.724

Cc1ccc2c(c1)c1c(n2CCc2ccccn2)CCN(C)C1 [1.1.2(2-3)·2HCl]
memory disorders caused by Scopolamine (time spent in area of the platform) [6]: decreasing memory disorders
inhibition at 3 µM [2, 7]: 77%

Cc1ccc2c(c1)c1c(n2CCc2ccccn2)CCCN(C)C1 [1.2.2(2-2)]
5-HT1A % inhibition ([1]; 10 µM ligand): -5%
